Assay results: EP1608650B1, “PYRENE-LINKED PYRROLO(2,1-C)(1,4)BENZODIAZEPINE DERIVATIVES USEFUL AS ANTICANCER AGENTS” (Council of Scientific and Industrial Research, priority 2003, dated 2004)

Columns and labels:
Breast = conditions: average of six to nine different cancer cell lines, log value
Protocol: (§1) In vitro biological activity studies were carried out at National Cancer Institute (USA).
(§2) For each compound, dose response curves for each cell line were measured at a minimum of five concentrations at 10 fold dilutions. A protocol of 48 h continuous drug exposure was used and a sulforhodamine B (SRB) protein assay was used to estimate cell viability or growth. […]
(§3) Each cancer type represents the average of six to nine different cancer cell lines.

CNS = conditions: average of six to nine different cancer cell lines, log value
Protocol: as §1, §2, §3

Melanoma = conditions: average of six to nine different cancer cell lines, log value
Protocol: as §1, §2, §3

Ovarian = conditions: average of six to nine different cancer cell lines, log value
Protocol: as §1, §2, §3

Prostate = conditions: average of six to nine different cancer cell lines, log value
Protocol: as §1, §2, §3

Colon = conditions: average of six to nine different cancer cell lines, log value
Protocol: as §1, §2, §3

Renal = conditions: average of six to nine different cancer cell lines, log value
Protocol: as §1, §2, §3

Non-small-cell lung = conditions: average of six to nine different cancer cell lines, log value
Protocol: as §1, §2, §3

Leukemia = conditions: average of six to nine different cancer cell lines, log value
Protocol: as §1, §2, §3

(Breast) MCF7 = experiment: In vitro one dose primary anticancer assay (NCI); format: cell-based, human; conditions: one dose at 10^-4 molar concentration
(CNS) SF-268 = experiment: In vitro one dose primary anticancer assay (NCI); format: cell-based, human; conditions: one dose at 10^-4 molar concentration
human tumour cell lines = experiment: cells
Protocol: as §1, §2

(Lung) NCI-H460 = experiment: In vitro one dose primary anticancer assay (NCI); format: cell-based, human; conditions: one dose at 10^-4 molar concentration
prostate cancer (DU-145) = conditions: read-out: potency (at the LC50 level)
Protocol: as §1, §2

colon cancer (HCC-2998) = conditions: read-out: potency (at the LC50 level)
Protocol: as §1, §2

renal cancer (A498) = conditions: read-out: potency (at the LC50 level)
Protocol: as §1, §2

melanoma cancer (M14) = conditions: read-out: potency (at the LC50 level)
Protocol: as §1, §2

leukemia cancer (SR) = conditions: read-out: potency (at the LC50 level)
Protocol: as §1, §2

[1] = tested on: CNS cancer cell lines (SNB75); conditions: read-out: potency (at the LC50 level)
Protocol: as §1, §2

[2] = tested on: non-small cell lung cancer (NCI-H226); conditions: read-out: potency (at the LC50 level)
Protocol: as §1, §2

For COc1cc2c(cc1OCCCC(=O)Nc1ccc3ccc4cccc5ccc1c3c45)N=C[C@@H]1CCCN1C2=O [Ve, 7-Methoxy-8-[N-(1"-pyrenyl)-propane-3'-carboxamide]-oxy-(11aS)-1,2,3,11atetra-hydro-5H-pyrrolo[2,1-c][1,4]benzodiazepin-5-one], the “Log LC50 (concentration in mol/L causing 50% lethality)” value (Breast) was greater than -4.00 mol/L, the “Log LC50 (concentration in mol/L causing 50% lethality)” value (CNS) was -5.23 mol/L and the “Log LC50 (concentration in mol/L causing 50% lethality)” value (Melanoma) was -5.62 mol/L. The “Log LC50 (concentration in mol/L causing 50% lethality)” value (Ovarian) was greater than -4.00 mol/L, the “Log LC50 (concentration in mol/L causing 50% lethality)” value (Prostate) was -5.30 mol/L and the “Log LC50 (concentration in mol/L causing 50% lethality)” value (Colon) was -5.00 mol/L. The “Log LC50 (concentration in mol/L causing 50% lethality)” value (Renal) was -5.05 mol/L, the “Log LC50 (concentration in mol/L causing 50% lethality)” value (Non-small-cell lung) was -4.67 mol/L and the “Log LC50 (concentration in mol/L causing 50% lethality)” value (Leukemia) was -4.65 mol/L. The “Growth percentages (Breast) MCF7” value ((Breast) MCF7) was 31, the “Growth percentages (CNS) SF-268” value ((CNS) SF-268) was 70 and the GI50 (human tumour cell lines; Homo sapiens, 48 h, read-out: Log10 GI50 (converted)) was 17.8 nM. For the same molecule, the “Log10 LC50” value (human tumour cell lines; mean graph midpoint (MG_MID), 48 h continuous drug exposure, 50% cell death) was -4.74, the “Log10 TGI” value (human tumour cell lines; mean graph midpoint (MG_MID), 48 h continuous drug exposure, total cell growth inhibition) was -6.89 and the “Growth percentages (Lung) NCI-H460” value ((Lung) NCI-H460) was 11. For the same molecule, the CC50 (prostate cancer (DU-145)) was 10 µM, the CC50 (colon cancer (HCC-2998)) was 10 nM and the CC50 (renal cancer (A498)) was 100 nM. It also gave a CC50 (melanoma cancer (M14)) of 100 nM, a CC50 (leukemia cancer (SR)) of 100 nM and a CC50 [1] of 10 µM. For the same molecule, the CC50 [2] was 10 nM.
With “7-Methoxy-8-[N-(1"-pyrenyl)-butne-4'-carboxamide]-oxy-(11aS)-1,2,3,11a-tetra-hydro-5H-pyrrolo[2,1-c][1,4]benzodiazepin-5-one [Vg]” the “Growth percentages (Breast) MCF7” value ((Breast) MCF7) was 72, the “Growth percentages (CNS) SF-268” value ((CNS) SF-268) was 131 and the “Growth percentages (Lung) NCI-H460” value ((Lung) NCI-H460) was 106.
